Measured values from patent US4975538A, “Antibiotic sulfonylaminocarbonyl activated beta-lactams” (The Upjohn Company, priority 1989, dated 1990).
In brackets after ≈: the same amount, converted by molar mass.

How the values were obtained:
Test in all cases: Minimum Inhibitory Concentration (MIC), agar dilution in Mueller Hinton Agar
Assay type in all cases: cell-based
Citrobacter Freundli = details: 20 h, culture number 3507
Protocol: (§1) The compounds of this invention and their respective pharmaceutically acceptable salts have antibiotic activity against a variety of gram-negative bacteria including Escherichia coli, Klebsiella pneumoniae, and Pseudomonas aeruginosa. The compounds are useful for treating bacterial infections in animals, including and most preferably humans. Compounds of the invention are tested for in vitro antimicrobial activity using standard testing procedures such as the determination of minimum inhibitory concentration (MIC) by methods described in "Methods for Dilution Antimicrobial Susceptibility Tests for Bacteria That Grow Aerobically" (M7-A) Published December 1985 by the National Committee for Clinical Laboratory Standards, 771 East Lancaster Avenue, Villanova, Pa. 19084. Briefly, MIC values are determined in unsupplemented Mueller Hinton Agar (MHA). The compounds tested are diluted serially into molten MHA at 47° C. The agar is poured into petri dishes and allowed to harden. The various bacteria used for testing are grown overnight on MHA at 35° C. and transferred to Tryptiease Soy Broth (TSB) until a turbidity of 0.5 McFarland standard is obtained. The bacteria are diluted one to twenty in TSB and inoculated on the plates (1 μl using a Steers replicator).

Klebsiella Oxytoca = details: 20 h
Protocol: as §1

Serratia Marcescens = details: 20 h, culture number 6888
Protocol: as §1

Enterobacter Cloacae = details: 20 h
Protocol: as §1

Streptococcus Pneumoniae = details: 20 h, culture number 41
Protocol: as §1

Staphylococcus Aureus = details: 20 h
Protocol: as §1

Pseudomonas Aeruginosa = details: 20 h
Protocol: as §1

Klebsiella Pneumoniae = details: 20 h, culture number 58
Protocol: as §1

Proteus Vulgaris = details: 20 h, culture number 9679
Protocol: as §1

Streptococcus Faecalis = details: Enterococcus faecalis, 20 h; culture number 694
Protocol: as §1

Escherichia Coli = details: 20 h
Protocol: as §1

[1] = test system: Staphylococcus epidermidis; details: 20 h, culture number 30031
Protocol: as §1

Streptococcus Pyogenes = details: 20 h, culture number 152
Protocol: as §1

SMILES | MIC (Citrobacter Freundli) | MIC (Klebsiella Oxytoca; culture number 9383) | MIC (Klebsiella Oxytoca; culture number 9384) | MIC (Serratia Marcescens) | MIC (Enterobacter Cloacae; culture number 9381) | MIC (Enterobacter Cloacae; culture number 9382) | MIC (Streptococcus Pneumoniae) | MIC (Staphylococcus Aureus; culture number 3665) | MIC (Staphylococcus Aureus; culture number 6685) | MIC (Staphylococcus Aureus; culture number 9218) | MIC (Pseudomonas Aeruginosa; culture number 231) | MIC (Pseudomonas Aeruginosa; culture number 9191) | MIC (Klebsiella Pneumoniae) | MIC (Proteus Vulgaris) | MIC (Streptococcus Faecalis) | MIC (Escherichia Coli; culture number 9379) | MIC (Escherichia Coli; culture number 9380) | MIC (Escherichia Coli; culture number 9451) | MIC (Streptococcus Pyogenes) | also measured
Nc1nc(/C(=N/OCC(=O)O)C(=O)N[C@H]2CN(C(=O)NS(=O)(=O)N3CCN(NC(=O)c4[nH]ccc(=O)c4O)C3=O)C2=O)cs1 [Compound E40, Acetic acid, [[[1-(2-amino-4-thiazolyl)-2-[[1-[[[[3-[[(1,4-dihydro-3-hydroxy-4-oxo-2-pyridinyl)carbonyl]amino]-2-oxo-1-imidazolidinyl]sulfonyl]-amino]carbonyl]-2-oxo-3-azetidinyl]amino]-2-oxoethylidene]amino]oxy]-, [S-(Z)]-] | 0.25 µg/mL (≈ 0.381 µM) | 2 µg/mL (≈ 3.05 µM) | 0.5 µg/mL (≈ 0.762 µM) | 2 µg/mL (≈ 3.05 µM) | 64 µg/mL (≈ 97.5 µM) | 1 µg/mL (≈ 1.52 µM) | > 64 µg/mL | > 64 µg/mL | > 64 µg/mL | > 64 µg/mL | 64 µg/mL (≈ 97.5 µM) | 64 µg/mL (≈ 97.5 µM) | 0.5 µg/mL (≈ 0.762 µM) | 0.25 µg/mL (≈ 0.381 µM) | > 64 µg/mL | 0.5 µg/mL (≈ 0.762 µM) | 1 µg/mL (≈ 1.52 µM) | 0.5 µg/mL (≈ 0.762 µM) | 64 µg/mL (≈ 97.5 µM) | MIC (Staphylococcus Aureus; culture number 9213): > 64 µg/mL; MIC [1]: > 64 µg/mL
CC(C)(O/N=C(\C(=O)N[C@H]1CN(C(=O)NS(=O)(=O)N2CCN(NC(=O)c3cccc(=O)n3O)C2=O)C1=O)c1csc(N)n1)C(=O)O [E42 (c), Propanoic acid, 2-[[[1-(2-amino-4-thiazolyl)-2[[1-[[[[3-[[(1,6-dihydro-1-hydroxy-2-oxo-6-pyridinyl)carbonyl]amino]-2-oxo-1-imidazolidinyl]sulfonyl]amino]carbonyl]-2-oxo-3-azetidinyl]-amino]-2-oxoethylidene]amino]oxy]-2-methyl-, [S-(Z)]-] | 0.5 µg/mL (≈ 0.73 µM) | 8 µg/mL (≈ 11.7 µM) | 0.5 µg/mL (≈ 0.73 µM) | 0.5 µg/mL (≈ 0.73 µM) | > 64 µg/mL | 1 µg/mL (≈ 1.46 µM) | > 64 µg/mL | > 64 µg/mL | > 64 µg/mL | > 64 µg/mL | 4 µg/mL (≈ 5.84 µM) | 8 µg/mL (≈ 11.7 µM) | 0.5 µg/mL (≈ 0.73 µM) | 0.06 µg/mL (≈ 0.0876 µM) | > 64 µg/mL | 0.25 µg/mL (≈ 0.365 µM) | 0.25 µg/mL (≈ 0.365 µM) | 0.5 µg/mL (≈ 0.73 µM) | 4 µg/mL (≈ 5.84 µM) | 
CC(C)(O/N=C(\C(=O)N[C@H]1CN(C(=O)NS(=O)(=O)N2CCN(NC(=O)c3ccn(O)c(=O)c3)C2=O)C1=O)c1csc(N)n1)C(=O)O [E42 (d), Propanoic acid, 2-[[[1-(2-amino-4-thiazolyl)-2-[[1-[[[[3-[[(1,2-dihydro-1-hydroxy-2-oxo-4-pyridinyl)carbonyl]amino]2-oxo-1-imidazolidinyl]sulfonyl]amino]carbonyl]-2-oxo-3-azetidinyl]amino]-2-oxoethylidene]amino]oxy]-2-methyl-, [S-(Z)]-] | 0.25 µg/mL (≈ 0.365 µM) | 4 µg/mL (≈ 5.84 µM) | 0.25 µg/mL (≈ 0.365 µM) | 0.5 µg/mL (≈ 0.73 µM) | 64 µg/mL (≈ 93.5 µM) | 0.5 µg/mL (≈ 0.73 µM) | 64 µg/mL (≈ 93.5 µM) | > 64 µg/mL | > 64 µg/mL | > 64 µg/mL | 1 µg/mL (≈ 1.46 µM) | 1 µg/mL (≈ 1.46 µM) | 0.25 µg/mL (≈ 0.365 µM) | 0.03 µg/mL (≈ 0.0438 µM) | > 64 µg/mL | 0.25 µg/mL (≈ 0.365 µM) | 0.25 µg/mL (≈ 0.365 µM) | 0.125 µg/mL (≈ 0.183 µM) | 4 µg/mL (≈ 5.84 µM) | 
